Measurements reported in ChEMBL document CHEMBL2346525, “Diastereotopic and deuterium effects in gemini” (J Med Chem, 2013).
Calls of active or inactive are those of the source. The rule behind the calls is not given here.

Organism: Homo sapiens
Experiment: Cytotoxicity against human ER negative MCF10CA1a cells assessed as growth inhibition after 3 days by [3H]thymidine incorporation assay
Format: functional, cell-based
Conditions: tested as the 2H-labelled form

| SMILES | growth inhibition (GI) |
| --- | --- |
| CC(C)(O)CCCC(CCCC(C)(C)O)[C@H]1CC[C@H]2/C(=C/C=C3C[C@@H](O)C[C@H](O)C3)CCC[C@]12C | Active |
| C=C1/C(=C\C=C2/CCC[C@]3(C)[C@@H](C(CCCC(C)(C)O)CCCC(C)(C)O)CC[C@@H]23)C[C@@H](O)C[C@@H]1O | Active |
